Measured values as given in ChEMBL document CHEMBL1201862, “PubChem BioAssay data set” (2004).
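Cultured in 96-well plates, cells were exposed to test compound for 48 hours across five concentrations. GI50: concentration for 50% inhibition of growth.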 Active and inactive are the calls of the source. No stated cut-off is given here; in the data, active = GI50 up to about 1.1 µM and inactive = higher.

Assays:
Assay in all cases: DTP human tumour cell line panel, 48 h
EKVX = system: EKVX
KM12 = system: KM12
LOX IMVI = system: LOX IMVI
M19-MEL = system: M19-MEL
NCI-H23 = system: NCI-H23
NCI-H460 = system: NCI-H460
OVCAR-3 = system: OVCAR-3
SF-295 = system: SF-295
SF-539 = system: SF-539
SN12C = system: SN12C
SNB-19 = system: SNB-19
SR = system: SR
TK-10 = system: TK-10
U-251 = system: U-251
UACC-257 = system: UACC-257

Measured: GI50

CN1C(=O)C(=O)c2cc3c(c4c2c1cc1ccccc14)OCO3 [CEPHARADIONE A]
inactive: EKVX 69.7 µM | KM12 18.3 µM | LOX IMVI 23 µM | M19-MEL 28.4 µM | NCI-H23 40.7 µM | NCI-H460 26.7 µM | OVCAR-3 62.1 µM | SF-295 38.7 µM | SF-539 45.6 µM | SN12C 37.7 µM | SNB-19 47.4 µM | SR 7.5 µM | TK-10 52.5 µM | U-251 43.4 µM | UACC-257 51.5 µM
